Experimental data taken from US6653081B2, “Methods for monitoring antiretroviral therapy and guiding therapeutic decision in the treatment of HIV/AIDS” (ViroLogic, Inc., priority 2000, dated 2003).
Values joined by “and” are separate entries in the source; they are usually repeats but may differ in a detail not shown here. Identical values can stand only once. “Also recorded” adds a separate entry of the source.

How the values were obtained:
[1] = test system: RTV-1033-3/283L/284R/286T; test: Phenotypic susceptibility assay, RTV-1033-3/283L/284R/286T; type: cell-based, HIV; details: RTV-1033-3 with L283I, R284K and T286A reverted
From the text: (§1) The resistance test vectors containing a functional luciferase gene cassette were constructed and host cells were transfected with the resistance test vector DNA. The resistant test vectors contained patient-derived reverse transcriptase and protease sequences that were either susceptible or resistant to the antiretroviral agents, such as nucleoside reverse transcriptase inhibitors, (NRTIs) non-nucleoside reverse transcriptase inhibitors […] protease inhibitors. The resistance test vector viral particles produced by transfecting the resistance test vector DNA into host cells, either in the presence or absence of PRIs, were used to infect target host cells grown either in the absence of NRTIs or NNRTIs, or in the presence of increasing concentrations of the drug. The amount of luciferase activity produced in infected target host cells in the presence of varying concentrations of drug was compared to the amount of luciferase produced in infected target host cells in the absence of drug. “Drug resistance” was measured as the amount of drug required to inhibit by 50% the luciferase activity detected in the absence of drug (inhibitory concentration 50%, IC50). The IC50 values were determined by plotting percent drug inhibition vs. log10 drug concentration. Stimulation of viral replication was measured as the percent increase in luciferase activity detected when infection occurs in the presence of drug as compared to in the absence of drug.
(§2) Host cells were seeded in 10-cm-diameter dishes and were transfected several days after plating with resistance test vector plasmid DNA and the envelope expression vector. Transfections were performed using a calcium-phosphate precipitation procedure. The cell culture media containing the DNA precipitate was replaced with fresh medium, from one to 24 hours, after transfection. Cell culture media containing resistance test vector viral particles was harvested one to four days after transfection and was passed through a […] filter before being used to infect target host cells, or being stored at −80° C. HIV capsid protein (p24) levels in the harvested cell culture media were determined by an EIA method as described by the manufacturer (SAIC; Frederick, Md.). Before infection, target cells (293 and 293/T) were plated in cell culture media. Control infections were performed using cell culture media from mock transfections (no DNA) or transfections containing the resistance test vector plasmid DNA without the envelope expression plasmid. One to three or more days after infection, the media was removed and cell lysis buffer (Promega) was added to each well. Cell lysates were assayed for luciferase activity (FIG. 3). The inhibitory effect of the drug was determined using the following equation:
(§3) % luciferase inhibition=1−(RLUluc[drug]÷RLUluc)×100
(§4) where RLUluc [drug] is the Relative Light Unit of luciferase activity in infected cells in the presence of drug, and RLUluc is the Relative Light Unit of luciferase activity in infected cells in the absence of drug. IC50values were obtained from the sigmoidal curves that were generated from the data by plotting the percent inhibition of luciferase activity vs. the log10 drug concentration. The percent luciferase stimulation is the negative of the % inhibition calculated using the formula above.
A resistance test vector containing all of the mutations present in RTV-1033-3 except for L283I, R284K and T286A (RTV-1033-3/283L/284R/286T) was constructed and tested using the phenotypic assay described earlier. The results were compared to those determined using the parent RTV-1033-3. We determined the pattern of phenotypic susceptibility to the NNRTIs, delavirdine, nevirapine and efavirenz, in the reverted vector, RTV-1033-3/283L/284R/286T.

[2] = test system: RTV-010829; test: Phenotypic susceptibility assay, RTV-010829; type: cell-based, HIV; details: patient 10829; for decrease in susceptibility: K103N, V245E, I270M
From the text: as §1, §2, §3, §4
(§5) A resistance test vector was constructed as described in Example 1 from a virus sample obtained from patient 10829. The prior and current treatment regimens are unknown. Isolation of viral RNA and RT/PCR was used to generate a patient derived segment (PDS) that comprised viral sequences coding for all of PR and aa 1-313 of RT. The PDS were inserted into an indicator gene viral vector to generate a resistance test vector designated RTV-010829. RTV-010829 was then tested in a phenotypic assay to determine accurately and quantitatively the level of susceptibility to a panel of anti-retroviral drugs. […]

[3] = test system: RTV-013522; test: Phenotypic susceptibility assay, RTV-013522; type: cell-based, HIV; details: patient 013522; for decrease in susceptibility: K103N, I135T, I270S
From the text: as §1, §2, §3, §4
as §5, with “013522.” for “10829.”, “RT from all three samples.” for “RT.”, “RTV-013522. RTV-013522” for “RTV-010829. RTV-010829”

[4] = test system: RTV-V245E; test: Phenotypic susceptibility assay, RTV-V245E; type: cell-based, HIV-1; details: site-directed V245E alone
From the text: as §1, §2, §3, §4
A resistance test vector containing a single mutation, V245E, (RTV-V245E) was constructed and tested in the phenotypic assay described earlier. The results were compared to those determined using a genetically defined resistance test vector that was wild type at position 245. We determined the pattern of phenotypic susceptibility to the NNRTIs, delavirdine, nevirapine and efavirenz, in […].

[5] = test system: Y181C/M230L-RTV; test: Phenotypic susceptibility assay, Y181C/M230L-RTV; type: cell-based, HIV-1; details: site-directed Y181C + M230L
[6] = test system: RTV-I135T/V245E; test: Phenotypic susceptibility assay, RTV-I135T/V245E; type: cell-based, HIV-1; details: site-directed I135T + V245E
From the text: as §1, §2, §3, §4
A resistance test vector containing two mutations, I135T and V245E (RTV-I135T/V245E) was constructed and tested in the phenotypic assay described earlier. The results were compared to those determined using a genetically defined resistance test vector that was wild type at positions 135 and 245. We determined the pattern of phenotypic susceptibility to the NNRTIs, delavirdine, nevirapine and efavirenz, in RTV-I135T/V245E.

[7] = test system: RTV-005738; test: Phenotypic susceptibility assay, RTV-005738; type: cell-based, HIV; details: patient 005738; for decrease in susceptibility: V245E with multiple other mutations
From the text: as §1, §2, §3, §4
as §5, with “005738.” for “10829.”, “RT […].” for “RT.”, “RTV-005738. RTV-005738” for “RTV-010829. RTV-010829”

Row | SMILES | drug-dependent stimulation of viral replication [1] | reductions in susceptibility compared to wild type control RTV [1] | drug-dependent stimulation of viral replication [2] | decrease in susceptibility [2] | drug-dependent stimulation of viral replication [3] | decrease in susceptibility [3] | drug-dependent stimulation of viral replication [4] | reductions in susceptibility compared to wild type control RTV [4] | drug-dependent stimulation of viral replication [5] | reduction in susceptibility compared to wild type control RTV [5] | drug-dependent stimulation of viral replication [6] | reductions in susceptibility compared to wild type control RTV [6] | drug-dependent stimulation of viral replication [7] | decrease in susceptibility [7]
1 | CC(C)Nc1cccnc1N1CCN(C(=O)c2cc3cc(NS(C)(=O)=O)ccc3[nH]2)CC1 [delavirdine] | ~40% | 7 fold | ~100% | > 250 fold | ~110% | > 250 fold | no drug-dependent stimulation | no reductions; also recorded: no significant reduction | no drug-dependent stimulation | > 250 fold | no drug-dependent stimulation | 2 fold | ~40% | 63 fold
2 | O=C1Nc2ccc(Cl)cc2[C@@](C#CC2CC2)(C(F)(F)F)O1 [efavirenz] | ~30% | 85 fold | ~80% | > 450 fold | ~100% | > 450 fold | no drug-dependent stimulation | no reductions; also recorded: no significant reduction | no drug-dependent stimulation | 25 fold | no drug-dependent stimulation | 2 fold | ~20% | 17 fold
3 | Cc1ccnc2c1NC(=O)c1cccnc1N2C1CC1 [nevirapine] | ~80% | > 600 fold | ~100% | > 600 fold | ~90% | > 600 fold | no drug-dependent stimulation | no reductions; also recorded: no significant reduction | no drug-dependent stimulation | > 600 fold and > 800 fold | no drug-dependent stimulation | 2.5 fold | ~20% | > 600 fold
